Assay results published in US20220089575A1, “FARNESOID X RECEPTOR AGONISTS AND USES THEREOF” (Metacrine, Inc., priority 2017, published 2022).

target: T1, hFXR (Homo sapiens, UniProt Q96RI1); experiment: In Vitro FXR Assay (TK): TK-ECRE-luc reporter in transfected CV-1 cells; format: cell-based; conditions: 18 hrs, luminescence, maximum efficacy of <25% of the Fexarmine control classified as '+'
T1 construct: expressed in transfected cells; host or cells: CV-1 cells
T1 sequence (Q96RI1 1-486): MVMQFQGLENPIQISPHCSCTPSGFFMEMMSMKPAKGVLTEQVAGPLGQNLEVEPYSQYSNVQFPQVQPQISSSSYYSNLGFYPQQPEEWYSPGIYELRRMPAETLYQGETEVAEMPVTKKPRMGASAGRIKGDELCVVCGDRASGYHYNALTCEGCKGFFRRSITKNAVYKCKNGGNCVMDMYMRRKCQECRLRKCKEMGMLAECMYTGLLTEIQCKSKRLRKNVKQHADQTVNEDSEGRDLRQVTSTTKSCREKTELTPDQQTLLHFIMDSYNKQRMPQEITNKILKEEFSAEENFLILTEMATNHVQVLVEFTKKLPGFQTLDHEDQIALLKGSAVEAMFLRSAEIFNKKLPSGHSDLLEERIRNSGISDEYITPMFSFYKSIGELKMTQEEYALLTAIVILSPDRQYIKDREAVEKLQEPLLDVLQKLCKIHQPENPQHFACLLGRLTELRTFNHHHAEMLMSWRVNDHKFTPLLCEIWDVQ
T1 sequence (P19793 1-462 partner): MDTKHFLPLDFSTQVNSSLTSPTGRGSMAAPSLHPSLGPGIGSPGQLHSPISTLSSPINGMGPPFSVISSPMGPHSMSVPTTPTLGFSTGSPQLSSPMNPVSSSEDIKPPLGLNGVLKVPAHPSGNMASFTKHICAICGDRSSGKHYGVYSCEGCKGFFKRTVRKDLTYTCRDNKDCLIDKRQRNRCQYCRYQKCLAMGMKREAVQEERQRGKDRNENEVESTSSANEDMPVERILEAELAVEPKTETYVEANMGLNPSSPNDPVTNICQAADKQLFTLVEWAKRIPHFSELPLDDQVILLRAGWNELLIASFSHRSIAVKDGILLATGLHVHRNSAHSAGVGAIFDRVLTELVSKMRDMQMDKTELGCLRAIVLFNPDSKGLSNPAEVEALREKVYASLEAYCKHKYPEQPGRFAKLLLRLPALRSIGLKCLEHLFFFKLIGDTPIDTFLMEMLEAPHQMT
Summary of the method: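 CV-1, transient co-transfection: hFXR + hRXR + TK-ECRE-luc + pCMX-YFP; charcoal-stripped serum. 18 h post-transfection, DMSO serial dilutions of cpd added; 18 h incubation; lysis, luminescence.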

| EC50 [nM] | SMILES |
| --- | --- |
| 250 to 1000 | COc1ccc([C@H]2CC[C@H](CN(c3cccc(-c4cnn(C5CC5)c4)c3)C(=O)[C@H]3CC[C@H](NC(=O)C[S+](C)[O-])CC3)CC2)cc1C (stereo partly drawn) [Compound 31.04, trans-N-(3-(1-Cyclopropyl-1H-pyrazol-4-yl)phenyl)-N-((trans-4-(4-methoxy-3-methylphenyl)cyclohexyl)methyl)-4-(2-(methylsulfinyl)acetamido) cyclohexanecarboxamide] |
| 250 to 1000 | COc1ccc([C@H]2CC[C@H](CN(c3cccc(-c4cnn(C5CC5)c4)c3)C(=O)[C@H]3CC[C@H](NC(=O)CS(C)(=O)=O)CC3)CC2)cc1C [Compound 31.02] |
| ≤ 250 | COc1ccc([C@H]2CC[C@H](CN(c3cc(-c4cnn(C5CC5)c4)ccn3)C(=O)[C@H]3CC[C@H](C(=O)O)CC3)CC2)cc1C [Compound 17.20, trans-4-((4-(1-Cyclopropyl-1H-pyrazol-4-yl)pyridin-2-yl)((trans-4-(4-methoxy-3-methylphenyl)cyclohexyl)methyl)carbamoyl)cyclohexanecarboxylic acid] |
| ≤ 250 | COc1ccc([C@H]2CC[C@H](CN(c3cccc(-c4cnc(C5CC5)s4)c3)C(=O)[C@H]3CC[C@H](NC(C)=O)CC3)CC2)cc1C [Compound 25.09, trans-4-Acetamido-N-(3-(2-cyclopropylthiazol-5-yl)phenyl)-N-((trans-4-(4-methoxy-3-methylphenyl)cyclohexyl)methyl) cyclohexanecarboxamide] |
| ≤ 250 | COC(=O)NCC(=O)N[C@H]1CC[C@H](C(=O)N(C[C@H]2CC[C@H](c3ccc(OC)c(C)c3)CC2)c2cccc(-c3cnc(C4CC4)s3)c2)CC1 [Compound 31.05, Methyl (2-((trans-4-((3-(2-cyclopropylthiazol-5-yl)phenyl)((trans-4-(4-methoxy-3-methylphenyl)cyclohexyl)methyl)carbamoyl)cyclohexyl)amino)-2-oxoethyl)carbamate] |
| ≤ 250 | COc1ccc([C@H]2CC[C@H](CN(c3cc(-c4cnn(C(C)C)c4)ccn3)C(=O)[C@H]3CC[C@H](CC(=O)O)CC3)CC2)cc1C [Compound 20.15, 2-(trans-4-((4-(1-Isopropyl-1H-pyrazol-4-yl)pyridin-2-yl)((trans-4-(4-methoxy-3-methylphenyl)cyclohexyl)methyl)carbamoyl)cyclohexyl)acetic acid] |

Continued, molecule first:

| SMILES | EC50 [nM] |
| --- | --- |
| COc1ccc([C@H]2CC[C@H](CN(c3cc(-c4cnn(C(C)C)c4)ccn3)C(=O)[C@H]3CC[C@H](OC(=O)NCCO)CC3)CC2)cc1C [Compound 6.17, trans-4-((4-(1-Isopropyl-1H-pyrazol-4-yl)pyridin-2-yl)((trans-4-(4-methoxy-3-methylphenyl)cyclohexyl)methyl)carbamoyl)cyclohexyl (2-hydroxyethyl)carbamate] | ≤ 250 |
| CNC(=O)O[C@H]1CC[C@H](C(=O)N(C[C@H]2CC[C@H](c3ccc(OC)c(C)c3)CC2)c2cccc(-c3cnn(C(C)C)c3)c2)CC1 [Compound 5.10, trans-4-((3-(1-Isopropyl-1H-pyrazol-4-yl)phenyl)((trans-4-(4-methoxy-3-methylphenyl)cyclohexyl)methyl)carbamoyl)cyclohexyl methylcarbamate] | ≤ 250 |
| COc1ccc([C@H]2CC[C@H](CN(c3cccc(-c4cnn(C(C)C)c4)c3)C(=O)[C@H]3CC[C@H](OC(=O)N4CCOCC4)CC3)CC2)nc1C [Compound 6.43, trans-4-((3-(1-Isopropyl-1H-pyrazol-4-yl)phenyl)((trans-4-(5-methoxy-6-methylpyridin-2-yl)cyclohexyl)methyl)carbamoyl)cyclohexylmorpholine-4-carboxylate] | ≤ 250 |
| CN(C)c1ccc([C@H]2CC[C@H](CN(c3cccc(-c4coc(C5CC5)n4)c3)C(=O)[C@H]3CC[C@H](OC(=O)N4CC(O)C4)CC3)CC2)cn1 [Compound 7.63, trans-4-((3-(2-Cyclopropyloxazol-4-yl)phenyl)((trans-4-(6-(dimethylamino)pyridine-3-yl)cyclohexyl)methyl)carbamoyl)cyclohexyl 3-hydroxyazetidine-1-carboxylate] | ≤ 250 |
| COc1ccc([C@H]2CC[C@H](CN(c3cc(-c4cnn(C(C)C)c4)ccn3)C(=O)[C@H]3CC[C@H](OC(=O)NC(C)C)CC3)CC2)nc1C#N [Compound 6.32, trans-4-(((trans-4-(6-Cyano-5-methoxypyridin-2-yl)cyclohexyl)methyl) (4-(1-isopropyl-1H-pyrazol-4-yl)pyridin-2-yl)carbamoyl)cyclohexyl isopropylcarbamate] | ≤ 250 |
| COc1ccc([C@H]2CC[C@H](CN(c3cccc(-c4cnc(C5CC5)s4)c3)C(=O)[C@H]3CC[C@H](NC(=O)OCCO)CC3)CC2)cc1C [Compound 28, 2-Hydroxyethyl (trans-4-((3-(2-cyclopropylthiazol-5-yl)phenyl)((trans-4-(4-methoxy-3-methylphenyl)cyclohexyl)methyl)carbamoyl)cyclohexyl)carbamate] | ≤ 250 |
| COc1ccc([C@H]2CC[C@H](CN(c3cc(-c4cnn(C(C)C)c4)ccn3)C(=O)[C@H]3CC[C@H](OC(=O)NC4CC4)CC3)CC2)nc1C [Compound 6.31, trans-4-((4-(1-Isopropyl-1H-pyrazol-4-yl)pyridin-2-yl)((trans-4-(5-methoxy-6-methylpyridin-2-yl)cyclohexyl)methyl)carbamoyl)cyclohexyl cyclopropylcarbamate] | ≤ 250 |
| CNC(=O)O[C@H]1CC[C@H](C(=O)N(C[C@H]2CC[C@H](c3ccc(OC)c(C#N)n3)CC2)c2cccc(-c3cnc(C4CC4)s3)c2)CC1 [Compound 5.06, trans-4-(((trans-4-(6-Cyano-5-methoxypyridin-2-yl)cyclohexyl)methyl)(3-(2-cyclopropylthiazol-5-yl)phenyl)carbamoyl)cyclohexyl methylcarbamate] | ≤ 250 |
| COc1ccc([C@H]2CC[C@H](CN(c3cccc(-c4cnn(C5CC5)c4)c3)C(=O)[C@H]3CC[C@H](OC(=O)NCCN(C)C)CC3)CC2)cc1C [Compound 4.09, trans-4-((3-(1-Cyclopropyl-1H-pyrazol-4-yl)phenyl)((trans-4-(4-methoxy-3-methylphenyl)cyclohexyl)methyl)carbamoyl)cyclohexyl (2-(dimethylamino)ethyl)carbamate] | ≤ 250 |
| COc1ccc([C@H]2CC[C@H](CN(c3cc(-c4cnn(C(C)C)c4)ccn3)C(=O)[C@H]3CC[C@H](OC(=O)N4CC(O)C4)CC3)CC2)cc1C#N [Compound 7.22, trans-4-(((trans-4-(3-Cyano-4-methoxyphenyl)cyclohexyl)methyl)(4-(1-isopropyl-1H-pyrazol-4-yl)pyridin-2-yl)carbamoyl)cyclohexyl 3-hydroxyazetidine-1-carboxylate] | ≤ 250 |
| COc1ccc([C@H]2CC[C@H](CN(c3cccc(-c4coc(C(C)C)n4)c3)C(=O)[C@H]3CC[C@H](OC(=O)N4CC(O)C4)CC3)CC2)nc1C#N [Compound 7.74, trans-4-(((trans-4-(6-Cyano-5-methoxypyridin-2-yl)cyclohexyl)methyl)(3-(2-isopropyloxazol-4-yl)phenyl)carbamoyl)cyclohexyl 3-hydroxyazetidine-1-carboxylate] | ≤ 250 |
| COc1ccc([C@H]2CC[C@H](CN(c3cc(-c4cnn(C(C)C)c4)ccn3)C(=O)[C@H]3CC[C@H](OC(=O)N4CC(CO)C4)CC3)CC2)cc1C#N [Compound 7.51, trans-4-(((trans-4-(3-Cyano-4-methoxyphenyl)cyclohexyl)methyl)(4-(1-isopropyl-1H-pyrazol-4-yl)pyridin-2-yl)carbamoyl)cyclohexyl 3-(hydroxymethyl)azetidine-1-carboxylate] | ≤ 250 |
| COc1ccc([C@H]2CC[C@H](CN(c3cccc(-c4cnn(C5CC5)c4)c3)C(=O)[C@H]3CC[C@H](OC(=O)N4CC(N)C4)CC3)CC2)cc1C [Compound 7.39, trans-4-((3-(1-Cyclopropyl-1H-pyrazol-4-yl)phenyl)((trans-4-(4-methoxy-3-methylphenyl)cyclohexyl)methyl)carbamoyl)cyclohexyl 3-aminoazetidine-1-carboxylate] | ≤ 250 |
| CCN(CCO)C(=O)O[C@H]1CC[C@H](C(=O)N(C[C@H]2CC[C@H](c3ccc(OC)c(C)n3)CC2)c2cc(-c3coc(C4CC4)n3)ccn2)CC1 [Compound 6.74, trans-4-((4-(2-Cyclopropyloxazol-4-yl)pyridin-2-yl)((trans-4-(5-methoxy-6-methylpyridin-2-yl)cyclohexyl)methyl)carbamoyl)cyclohexyl ethyl(2-hydroxyethyl)carbamate] | ≤ 250 |
